Measurements from ChEMBL document CHEMBL5244229, “Thiazole-containing compounds as therapeutic targets for cancer therapy” (Eur J Med Chem, 2020).
pIC50: −log10 of the molar value. In brackets after ≈: the same amount, converted by molar mass.

How the values were obtained:
HepG2 [1] = experiment: Cytotoxicity against human HepG2 cells assessed as inhibition of cell growth incubated for 48 hrs by MTT assay; format: functional, cell-based; conditions: HepG2, 48 h
[2] = Antiproliferative activity against human A375P cells; format: functional, cell-based
A549 [3] = experiment: Anticancer activity against human A549 cells at 5 microg/ml relative to control; format: functional; conditions: dose 5 µg/ml
MDA-MB-231 [4] = experiment: Antiproliferative activity against human MDA-MB-231 cells assessed as reduction in cell viability incubated for 2 days by MTT assay; format: functional, cell-based; conditions: MDA-MB-231, 48 h
Jurkat = experiment: Antiproliferative activity against human Jurkat cells assessed as reduction in cell viability incubated for 2 days by MTT assay; format: functional, cell-based; conditions: 48 h
SF-295 = experiment: Cytotoxicity against human SF-295 cells; format: functional, cell-based
MDA-MB-435 = experiment: Cytotoxicity against human MDA-MB-435 cells; format: functional, cell-based
HL-60 = experiment: Cytotoxicity against human HL-60 cells; format: functional, cell-based
MCF7 [5] = experiment: Antiproliferative activity against human MCF7 cells assessed as reduction in cell viability incubated for 24 hrs by Celltiter-Glo cell viability assay; format: functional, cell-based; conditions: MCF7, 24 h
HCT-116 [6] = experiment: Anticancer activity against human HCT-116 cells; format: functional, cell-based
MV4-11 = experiment: Anticancer activity against human MV4-11 cells; format: functional, cell-based
NCI-H460 [7] = experiment: Antitumor activity against human NCI-H460 cells; format: functional, cell-based
NCI-H460 [8] = experiment: Cytotoxicity against human NCI-H460 cells assessed as reduction in cell viability by MTS assay; format: functional
SF-268 [9] = experiment: Cytotoxicity against human SF-268 cells assessed as reduction in cell viability by MTS assay; format: functional
MCF7 [10] = experiment: Cytotoxicity against human MCF7 cells assessed as reduction in cell viability by MTS assay; format: functional
SF-268 [11] = experiment: Antitumor activity against human SF-268 cells; format: functional
MCF7 [12] = experiment: Cytotoxicity against human MCF7 cells; format: functional, cell-based
[13] = tested on: Panel NCI-60 (60 carcinoma cell lines); experiment: Antiproliferative activity against human Panel NCI-60 (60 carcinoma cell lines) assessed as cell growth inhibition; format: functional
MCF7 [14] = experiment: Anticancer activity against human MCF7 cells; format: functional, cell-based
A549 [15] = experiment: Anticancer activity against human A549 cells; format: functional, cell-based
MCF7 [16] = experiment: Cytotoxicity against human MCF7 cells assessed as reduction in cell viability incubated for 48 hrs by MTT assay; format: functional
NCI-H460 [17] = experiment: Cytotoxicity against human NCI-H460 cells assessed as reduction in cell viability incubated for 48 hrs by MTT assay; format: functional
T47D = experiment: Cytotoxicity against human T47D cells; format: functional, cell-based
MCF7 [18] = experiment: Cytotoxicity against human MCF7 cells assessed as reduction in cell viability by MTT assay; format: functional, cell-based
HCT-116 [19] = experiment: Cytotoxicity against human HCT-116 cells assessed as reduction in cell viability by MTT assay; format: functional, cell-based
MDA-MB-231 [20] = experiment: Cytotoxicity against human MDA-MB-231 cells assessed as reduction in cell viability by MTT assay; format: functional, cell-based
HeLa [21] = experiment: Cytotoxicity against human HeLa cells assessed as reduction in cell viability by MTT assay; format: functional, cell-based
MG-63 = experiment: Cytotoxicity against human MG-63 cells; format: functional, cell-based
HeLa [22] = experiment: Cytotoxicity against human HeLa cells; format: functional, cell-based
[23] = target: Epidermal growth factor receptor (Homo sapiens, UniProt P00533); experiment: Inhibition of EGFR (unknown origin)
HepG2 [24] = experiment: Anticancer activity against human HepG2 cells; format: functional, cell-based
HepG2 [25] = experiment: Cytotoxicity against human HepG2 cells; format: functional, cell-based
K562 = experiment: Anticancer activity against human K562 cells; format: functional, cell-based
SMMC-7721 = experiment: Cytotoxicity against human SMMC-7721 cells; format: functional, cell-based
HepG2 [26] = experiment: Cytotoxicity against human HepG2 cells assessed as reduction in cell viability measured after 48 hrs by MTS assay; format: functional, cell-based; conditions: HepG2, 48 h
PC-3 = experiment: Anticancer activity against human PC-3 cells; format: functional, cell-based

Chain of Epidermal growth factor receptor (P00533 whole entry): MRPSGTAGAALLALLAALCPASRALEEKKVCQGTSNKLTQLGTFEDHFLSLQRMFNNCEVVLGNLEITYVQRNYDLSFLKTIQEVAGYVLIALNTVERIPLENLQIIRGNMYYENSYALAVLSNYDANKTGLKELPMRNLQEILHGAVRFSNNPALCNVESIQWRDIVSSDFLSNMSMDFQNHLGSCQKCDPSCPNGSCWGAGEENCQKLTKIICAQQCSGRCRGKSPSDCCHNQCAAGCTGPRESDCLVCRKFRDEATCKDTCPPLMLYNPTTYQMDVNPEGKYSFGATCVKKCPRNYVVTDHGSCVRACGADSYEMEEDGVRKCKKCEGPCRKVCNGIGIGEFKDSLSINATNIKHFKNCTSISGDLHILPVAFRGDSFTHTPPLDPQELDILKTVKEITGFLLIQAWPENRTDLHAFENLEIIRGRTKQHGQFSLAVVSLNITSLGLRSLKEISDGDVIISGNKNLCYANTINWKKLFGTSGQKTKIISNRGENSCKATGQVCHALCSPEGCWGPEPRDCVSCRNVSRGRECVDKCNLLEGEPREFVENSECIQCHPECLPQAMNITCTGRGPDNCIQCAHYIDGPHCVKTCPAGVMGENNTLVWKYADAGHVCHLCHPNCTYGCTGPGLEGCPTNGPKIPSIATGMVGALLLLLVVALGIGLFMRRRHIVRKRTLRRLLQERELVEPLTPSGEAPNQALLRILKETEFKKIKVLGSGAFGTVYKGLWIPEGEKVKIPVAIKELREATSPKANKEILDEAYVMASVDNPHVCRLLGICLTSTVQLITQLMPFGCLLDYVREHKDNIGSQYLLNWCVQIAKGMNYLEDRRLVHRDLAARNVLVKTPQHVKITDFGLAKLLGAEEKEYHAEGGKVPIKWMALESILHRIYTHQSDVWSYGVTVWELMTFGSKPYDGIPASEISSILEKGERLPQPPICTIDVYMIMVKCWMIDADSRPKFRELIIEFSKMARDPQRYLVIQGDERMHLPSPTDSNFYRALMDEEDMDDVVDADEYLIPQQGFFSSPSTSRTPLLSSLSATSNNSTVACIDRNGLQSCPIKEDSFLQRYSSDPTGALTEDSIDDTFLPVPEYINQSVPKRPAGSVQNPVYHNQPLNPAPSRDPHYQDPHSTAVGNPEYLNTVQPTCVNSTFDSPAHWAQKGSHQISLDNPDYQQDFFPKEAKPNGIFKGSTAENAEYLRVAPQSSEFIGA

Compound: CNC(=O)c1cc(Oc2ccc(NC(=O)Nc3ccc(Cl)c(C(F)(F)F)c3)cc2)ccn1 [SORAFENIB]
- pIC50 (HepG2 [1]): 5.28
- pIC50 [2]: 5.25

Compound: Cc1cc(Cl)cc(C(=O)NC2CCCCC2)c1NC(=O)c1sc(-c2ccccc2Cl)nc1C(F)(F)F
- Activity (A549 [3]): 48%

Compound: CCC[C@H](NS(=O)(=O)c1ccc(C)cc1)[C@]1(c2ccccc2Br)N=C(SCC)SC1=O
- pIC50 (MDA-MB-231 [4]): 4.39
- pIC50 (Jurkat): 4.72

Compound: Cc1ccc2[nH]cc3c(=O)n(-c4nc5ccccc5s4)nc-3c2c1
- IC50 (SF-295): < 5 µg/mL
- IC50 (MDA-MB-435): < 5 µg/mL
- IC50 (HL-60): < 5 µg/mL

Compound: O=S(=O)(Nc1ccc(-c2csc(N/N=C/c3ccc(N(CCCl)CCCl)cc3)n2)cc1)c1ccc(C(F)(F)F)cc1
- IC50 (MCF7 [5]): 3.02 µg/mL (≈ 4.7 µM)
- IC50 (HCT-116 [6]): 3.02 µg/mL
- pIC50 (MV4-11): 5.66

Compound: CCn1c(=O)/c(=C2\Sc3ccccc3N2C)s/c1=C\c1cccc[n+]1CC
- pIC50 (NCI-H460 [7]): 5.89

Compound: C/C(=N\N=c1/scc(-c2ccc(Br)cc2)n1-c1ccccc1)C1CC[C@@]2(C)[C@]3(C)CC=C4C[C@@H](O)CC[C@]4(C)[C@@]3(C)CC[C@]12C (stereo partly specified)
- GI50 (NCI-H460 [8]): 0.6 µM
- GI50 (SF-268 [9]): 0.4 µM
- GI50 (MCF7 [10]): 0.6 µM

Compound: CC(=O)C(C(C)=O)=C1SC(n2nc(O)cc2N)=CN1c1ccccc1
- GI50 (SF-268 [11]): 0.01 µM

Compound: O=c1[nH]cc(F)c(=O)[nH]1 [FLUOROURACIL]
- Activity (A549 [3]): 57%
- IC50 (MCF7 [12]): 5.5 µg/mL

Compound: Cn1cc(-c2nc(-c3c[nH]c4ccccc34)cs2)c2cccnc21
- GI50 [13]: 0.04 µM

Compound: Cn1cc(-c2csc(-c3cn(C)c4ncccc34)n2)c2ccccc21
- GI50 [13]: 0.03 µM

Compound: O=C(NNc1nc(-c2ccc(Cl)cc2)cs1)N1N=C(c2ccccc2)CC1c1ccccc1 (stereo unspecified)
- pIC50 (MCF7 [14]): 5.30
- pIC50 (A549 [15]): 5.30

Compound: O=S1(=O)NCCN1CCNc1nccc(-c2c(-c3ccc(F)cc3)nc3sccn23)n1
- pIC50 [2]: 5.72

Compound: CC1=CS/C(=C(/C#N)C(=O)N/N=C(\C)C2CC[C@@]3(C)[C@]4(C)CC=C5C[C@@H](O)CC[C@]5(C)[C@@]4(C)CC[C@]23C)N1c1ccccc1 (stereo partly specified)
- GI50 (MCF7 [16]): 0.02 µM
- GI50 (NCI-H460 [17]): 0.01 µM

Compound: O=C(NNc1nc(-c2ccc3ccccc3c2)cs1)N1N=C(c2ccccc2)CC1c1ccc(Cl)cc1 (stereo unspecified)
- pIC50 (MCF7 [14]): 5.30
- pIC50 (A549 [15]): 5.30

Compound: N#CC(C#N)=C1SC(n2nc(O)cc2N)=CN1c1ccccc1
- GI50 (SF-268 [11]): 0.01 µM

Compound: C/C(=N\NC(=O)/C(C#N)=C1\SC=C(O)N1c1ccccc1)C1CC[C@@]2(C)[C@]3(C)CC=C4C[C@@H](O)CC[C@]4(C)[C@@]3(C)CC[C@]12C (stereo partly specified)
- GI50 (MCF7 [16]): 0.04 µM
- GI50 (NCI-H460 [17]): 0.09 µM

Compound: Cc1ccc(Oc2ccc(-c3csc(N)n3)cc2)cc1
- pIC50 (T47D): 6.27

Compound: Nc1ccccc1C(=O)Nn1c(-c2ccc(Cl)cc2)cs/c1=N/c1ccc([N+](=O)[O-])cc1
- pIC50 (MCF7 [18]): 5.27
- pIC50 (HCT-116 [19]): 5.27
- pIC50 (MDA-MB-231 [20]): 5.27
- pIC50 (HeLa [21]): 5.27

Compound: CCC[C@H](NS(=O)(=O)c1ccc(C)cc1)[C@]1(c2ccccc2Cl)N=C(SCC)SC1=O
- pIC50 (MDA-MB-231 [4]): 4.42
- pIC50 (Jurkat): 4.77

Compound: CC(=O)Nc1nc2ccc(NC(=O)Cc3c[nH]c4ccccc34)cc2s1
- pIC50 (MG-63): 4.32
- pIC50 (HeLa [22]): 4.32
- pIC50 (MCF7 [12]): 4.32

Compound: CC(=O)Nc1nc2ccc(NS(=O)(=O)c3ccc(C4CCCCC4)cc3)cc2s1
- pIC50 (MG-63): 4.47
- pIC50 (HeLa [22]): 4.36
- pIC50 (MCF7 [12]): 4.44

Compound: O=c1c2c[nH]c3ccc(Br)cc3c-2nn1-c1nc2ccccc2s1
- IC50 (SF-295): < 5 µg/mL
- IC50 (MDA-MB-435): < 5 µg/mL
- IC50 (HL-60): < 5 µg/mL

Compound: O=C(Nn1c(-c2ccc(Br)cc2)cs/c1=N\c1ccc([N+](=O)[O-])cc1)c1ccc(Cl)cc1
- pIC50 (MCF7 [18]): 5.27
- pIC50 (HCT-116 [19]): 5.27
- pIC50 [23]: 5.08
- pIC50 (MDA-MB-231 [20]): 5.27
- pIC50 (HeLa [21]): 5.27

Compound: COc1cccc2c1C(=O)c1c(O)c3c(c(O)c1C2=O)C[C@@](O)(C(=O)CO)C[C@@H]3O[C@H]1C[C@H](N)[C@H](O)[C@H](C)O1 [DOXORUBICIN]
- pIC50 (HepG2 [24]): 4.94
- CC50 (HepG2 [25]): 0.2 µM
- pIC50 (K562): 5.64
- pIC50 (HCT-116 [6]): 6.74
- pIC50 (SMMC-7721): 6.64
- pIC50 (HepG2 [26]): 6.14
- pIC50 (PC-3): 6.04

Compound: C/C(=N\N=c1/scc(-c2ccc(Cl)cc2)n1-c1ccccc1)C1CC[C@@]2(C)[C@]3(C)CC=C4C[C@@H](O)CC[C@]4(C)[C@@]3(C)CC[C@]12C (stereo partly specified)
- GI50 (NCI-H460 [8]): 0.2 µM
- GI50 (SF-268 [9]): 0.8 µM
- GI50 (MCF7 [10]): 0.2 µM
